The term EC50 denotes the midpoint of the concentration-response curve. A word on the IC50: it is the concentration that gives 50% inhibition. Low values mean higher potency, high ones lower potency.

Each structure is given as a SMILES string.

For test [1], the system named is Hepatitis C virus. Nature of the test: Antiviral activity against HCV genotype 1b infected in Rluc cells by 384 well-format assay. In kind it is functional, organism-based, Hepacivirus hominis.
A short description of test [2]: Inhibition of HCV genotype 1b NS3/4A protease. Set-up: species or system Hepatitis C virus subtype 1b.

For the compound `COc1ccc2c(O[C@@H]3C[C@H]4C(=O)N[C@]5(C(=O)NS(=O)(=O)C6CC6)C[C@H]5/C=C\CCCCCS(=O)(=O)N4C3)cc(-c3nc(C(C)C)cs3)nc2c1C`, in test [1], the concentration giving a half-maximal response (EC50) was found to be 79 nM. The compound also showed an IC50 in test [2] of 2.9 nM.
The like results for `COc1ccc2c(O[C@@H]3C[C@H]4C(=O)N[C@]5(C(=O)NS(=O)(=O)C6CC6)C[C@H]5/C=C\CCCCCCC(=O)N4C3)cc(-c3nc(C(C)C)cs3)nc2c1C` were, in that order, 5.8 nM and 0.3 nM.
For `C=C[C@@H]1C[C@]1(NC(=O)[C@@H]1C[C@@H](Oc2cc(-c3nc(C(C)C)cs3)nc3c(C)c(OC)ccc23)[C@H]2CCCS(=O)(=O)N21)C(=O)NS(=O)(=O)C1CC1` the same measures were more than 2000 nM and 639 nM.
The like results for `C=C[C@@H]1C[C@]1(NC(=O)[C@@H]1C[C@@H](Oc2cc(-c3nc(C(C)C)cs3)nc3c(C)c(OC)ccc23)[C@H]2CCCC(=O)N21)C(=O)NS(=O)(=O)C1CC1` were, in that order, more than 2000 nM and 47 nM.
On to `COc1ccc2c(O[C@@H]3C[C@H]4C(=O)N[C@]5(C(=O)O)C[C@H]5/C=C\CCCCCCS(=O)(=O)N4C3)cc(-c3nc(C(C)C)cs3)nc2c1C`, for which, in test [1], the EC50 is more than 2000 nM. For the same compound, the IC50 in test [2] turned out to be 712 nM.
With `COc1ccc2c(O[C@@H]3C[C@H]4C(=O)N[C@]5(C(=O)NS(=O)(=O)C6CC6)C[C@H]5CCCCCCCS(=O)(=O)N4C3)cc(-c3nc(C(C)C)cs3)nc2c1C`, in test [1], the EC50 was determined as 89 nM. Further, in test [2], the IC50 turned out to be 4.7 nM.
The like results for `COc1ccc2c(O[C@@H]3C[C@H]4C(=O)N[C@]5(C(=O)NS(=O)(=O)C6CC6)C[C@H]5/C=C\CCCCCC(=O)N4C3)cc(-c3nc(C(C)C)cs3)nc2c1C` were, in that order, 4 nM and 0.4 nM.
The like results for `COc1ccc2c(O[C@@H]3C[C@H]4C(=O)N[C@]5(C(=O)NS(=O)(=O)C6CC6)C[C@H]5/C=C\CCCCCCS(=O)(=O)N4C3)cc(-c3nc(C(C)C)cs3)nc2c1C` were, in that order, 440 nM and 13 nM.
For `COc1ccc2c(O[C@@H]3C[C@H]4C(=O)N[C@]5(C(=O)O)C[C@H]5/C=C\CCCCCS(=O)(=O)N4C3)cc(-c3nc(C(C)C)cs3)nc2c1C`, the EC50 in test [1] is more than 2000 nM. This compound also returned an IC50 in test [2] of 747 nM.
For `COc1ccc2c(O[C@@H]3C[C@H]4C(=O)N[C@]5(C(=O)NS(=O)(=O)C6CC6)C[C@H]5CCCCCCCCS(=O)(=O)N4C3)cc(-c3nc(C(C)C)cs3)nc2c1C` the same measures were 257 nM and 7.4 nM.

For the origin of these results see ChEMBL document CHEMBL3112464, “Novel, sulfonamide linked inhibitors of the hepatitis C virus NS3 protease” (Bioorg Med Chem Lett, 2014).
